Test system in one data set: not given
Test: not given
Conditions: not given
Take `O=[N+]([O-])c1ccc(CSc2ncnc3c2nc(NC2CCCC2)n3Cc2ccccc2)cc1` [Example 14, 9-benzyl-8-(cyclopentylamine)-6-(4-nitrobenzyl)-mercaptopurine]: the melting point – broadly, the temperature, or range, at which the solid turns liquid – was 150 to 151 °C.

The compound `O=[N+]([O-])c1ccc(CSc2ncnc3c2nc(NC2CCCCC2)n3Cc2ccccc2)cc1` [Example 15, 9-benzyl-8-(cyclohexylamine)-6-(4-nitrobenzyl)-mercaptopurine] displayed a melting point of 66 to 68 °C.

The next data set has as its target T1, Nucleoside Transporter (Homo sapiens, UniProt Q99808).
T1 sequence (Q99808 1-456): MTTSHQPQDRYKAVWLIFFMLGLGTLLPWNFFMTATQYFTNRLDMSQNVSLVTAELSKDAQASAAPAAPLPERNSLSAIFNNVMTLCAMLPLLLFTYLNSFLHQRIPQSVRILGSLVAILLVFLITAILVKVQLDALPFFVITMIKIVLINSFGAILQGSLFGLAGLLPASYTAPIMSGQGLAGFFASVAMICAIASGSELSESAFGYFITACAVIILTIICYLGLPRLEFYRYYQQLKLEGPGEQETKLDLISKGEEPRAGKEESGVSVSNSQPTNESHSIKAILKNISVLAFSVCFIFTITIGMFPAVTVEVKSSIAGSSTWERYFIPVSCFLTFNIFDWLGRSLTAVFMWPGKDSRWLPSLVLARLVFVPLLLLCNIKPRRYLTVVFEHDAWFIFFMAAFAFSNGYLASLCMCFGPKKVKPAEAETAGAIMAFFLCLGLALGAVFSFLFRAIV
Test: not given
The following applies: pH 7.4.
As to “6-benzyl-8-(cyclohexylamino)-thioinosine [Example 10]”, affinity was put at a Ki of 0.94 nM.

With “6-benzyl-8-(n-butylamino)-thioinosine [Example 4]”, the affinity corresponds to a Ki of 5.4 nM.

With “6-benzyl-8-(n-pentylamino)-thioinosine [Example 5]”, the affinity corresponds to a Ki of 2.3 nM.

As for “9-benzyl-6-(4-nitrobenzyl)-8-pyrrolidino-mercaptopurine [Example 16]”, the affinity corresponds to a Ki of 1520 nM.

For the compound `CCNc1nc2c(SCc3ccccc3)ncnc2n1[C@@H]1O[C@H](CO)[C@@H](O)[C@H]1O` [Example 2, 6-benzyl-8-ethylamino-thioinosine], the Ki (usually a measure of affinity in units of concentration, obtained from inhibition or displacement) is 9.5 nM. This Ki lies about 160-fold lower than the previous one.

The compound `CCCNc1nc2c(SCc3ccccc3)ncnc2n1[C@@H]1O[C@H](CO)[C@@H](O)[C@H]1O` [Example 3, 6-benzyl-8-(n-propylamino)-thioinosine] showed an inhibitory constant (Ki) of 5.3 nM. Against the preceding compound, the Ki is about 1.8-fold lower.

As to `CCC(C)CNc1nc2c(SCc3ccccc3)ncnc2n1[C@@H]1O[C@H](CO)[C@@H](O)[C@H]1O` (stereo partly shown) [Example 7, 6-benzyl-8-[(2-methyl-butyl)-amino]-thioinosine], the Ki was 3.6 nM. This Ki and that of the compound before are within 1.5-fold of each other.

As to `OC[C@H]1O[C@@H](n2c(NC3CC3)nc3c(SCc4ccccc4)ncnc32)[C@H](O)[C@@H]1O` [Example 8, 6-benzyl-8-(cyclopropylamino)-thioinosine], the inhibition constant (Ki) is 3 nM.

In the case of `OC[C@H]1O[C@@H](n2c(NC3CCCC3)nc3c(SCc4ccccc4)ncnc32)[C@H](O)[C@@H]1O` [Example 9, 6-benzyl-8-(cyclopentylamino)-thioinosine], the Ki is 0.64 nM.

As for `OC[C@H]1O[C@@H](n2c(N3CCCC3)nc3c(SCc4ccccc4)ncnc32)[C@H](O)[C@@H]1O` [Example 11, 6-benzyl-8-pyrrolidino-thioinosine], the Ki is 410 nM.

Consider `OC[C@H]1O[C@@H](n2c(N3CCCCC3)nc3c(SCc4ccccc4)ncnc32)[C@H](O)[C@@H]1O` [Example 12, 6-benzyl-8-piperidino-thioinosine], for which the Ki is 744 nM.

`O=[N+]([O-])c1ccc(CSc2ncnc3c2nc(NC2CCCC2)n3Cc2ccccc2)cc1` [Example 14, 9-benzyl-8-(cyclopentylamine)-6-(4-nitrobenzyl)-mercaptopurine] gave a Ki of 29 nM.

`O=[N+]([O-])c1ccc(CSc2ncnc3c2nc(NC2CCCCC2)n3Cc2ccccc2)cc1` [Example 15, 9-benzyl-8-(cyclohexylamine)-6-(4-nitrobenzyl)-mercaptopurine] came in with a Ki of 55 nM.

The target of the next data set is T1, Nucleoside Transporter. The data set can be described thus: biochemical.
Conditions: not given
Take `c1ccc(Cn2c(N3CCOCC3)nc3c(SCc4ccc5nonc5c4)ncnc32)cc1` [Example 19, 6-(benzo[c][1,2,5]oxadiazole-5-ylmethylsulfanyl)-9-benzyl-8-morpholin-4-yl-9H-purine]: the Ki was determined as 122 nM.

Consider `c1ccc(CSc2ncnc3c2nc(N2CCOCC2)n3Cc2ccccc2)cc1` [Example 20, 9-benzyl-6-benzylsulfanyl-8-morpholin-4-yl-9H-purine], for which the Ki was 1390 nM.

`c1ccc(CSc2ncnc3c2nc(N2CCCC2)n3Cc2ccccc2)cc1` [Example 21, 9-benzyl-6-benzylsulfanyl-8-pyrrolidin-1-yl-9H-purine] came in with a Ki of 514 nM.

The target in a further data set is T1, Nucleoside Transporter. The data set can be described thus: radioligand binding assay with [3H]NBTI on human erythrocyte membranes. The following applies: [[…] 1.5 nM, test concentration not printed (footnote c missing).
In the case of `OC[C@H]1O[C@@H](n2c(N3CCOCC3)nc3c(SCc4ccccc4)ncnc32)[C@H](O)[C@@H]1O` [Example 13], the “Binding Nucleoside Transporter (value printed as % in the Ki column)” value is given as 33%^c.

The record behind these values is patent publication US7781432B2 (Gruenenthal GmbH, priority 2004, dated 2010).
